Experimental data: article PMC8061941 (PLoS ONE, 2021)
“Also recorded” adds a separate entry of the source. Square brackets hold non-standard residues; d marks the D form. Ends that are not written are not given here. Peptide text beside a SMILES is read from it.

Tests used:
[1] = Mass spectrometry analysis of Ringers solution from Ussing chambers during ex vivo recovery (degradation and fragment formation); format: in vitro ADME, pig; details: for Fragment detected in Ringers solution during ex vivo recovery: Ussing chambers with ischemia-injured jejunum in presence of parent peptide (LA or A6), MS analysis, N = 4; for half-life: pig, tissue, pH 7.4, Ussing chamber Ringers solution, ex vivo recovery 240 minutes, LC-MS/MS, n = 4, read-out: Half-life in ischemic injured jejunum tissue
Source text: After 45-minutes of ischemia, the pigs were euthanized, and intestinal segments were collected. Non-ischemic control tissue was also collected at this time. Following tissue collection, the seromuscular layer was stripped from the mucosa while the tissue was bathed in oxygenated (95% O2, 5% CO2) Ringer’s solution (in mmol/L: 154 Na^+, 6.3 K^+, 137 Cl^-, and 24 HCO3^-; pH 7.4). The mucosa was subsequently mounted in 1.1-cm^2 aperture Ussing chambers, as described in previous studies. Tissues were bathed on both the mucosal and serosal sides with 10mL Ringer’s solution. The mucosal bathing solution contained 10mM mannitol while the serosal side was osmotically balanced with 10mM glucose. Bathing solutions were oxygenated (95% O2, 5% CO2) and circulated in water-jacketed reservoirs. The spontaneous potential difference (PD) was measured using Ringer-agar bridges connected to calomel electrodes, and the PD was short-circuited through Ag-AgCl electrodes using a voltage clamp that was corrected for fluid resistance. TER (Ω·cm^2) was calculated from the spontaneous PD and short-circuit current (Isc). If the spontaneous PD was between -1.0 and 1.0 mV, tissues were current clamped at ± 100 μA for 5-seconds, and the PD was recorded. Isc and PD were recorded at 15-minute intervals over a 4-hour experiment. After tissues were mounted on Ussing chambers, all tissues were allowed to acclimate for a period of 30-minutes to establish stable baseline measurements, after which experimental, single-dose treatments of LA, LA fragments (F1, F2, or F3) with or without LA, A6, or A6 with or without A6 fragments (A6F1 or A6F2) were added to the apical chamber. For the microdosing regimen of LA, multiple doses at various concentrations of LA were added initially after the 30-minute acclimation period and every 45-minutes following this initial dose. Tissues were monitored by measuring transepithelial resistance (TER) for 240 minutes. Samples of Ringers solution were collected at select timepoints and quenched with 5% trifluoroacetic acid (TFA) solution (in 80% acetonitrile (ACN): 20% DI water). […] Standardization of ischemic injury severity between intestinal loops was standardized using a similar method as previously described in another intestinal mucosal injury model. First, T = 0 TER values from separate studies utilizing juvenile porcine intestinal ischemic tissue across three years were averaged (24 Ω·cm^2), and the standard deviation of this dataset was calculated (11 Ω·cm^2). Tissues with a T = 0 TER value exceeding one standard deviation of the mean (i.e., < 13 or > 35 Ω·cm^2) were excluded from experiments and data analysis.

aminopeptidase M = target: T1, aminopeptidase M (Sus scrofa, UniProt P15145); details: LA 0.2 mg/mL in SIF without pancreatin pH 6.5, 10 μM MgCl2, AM 0.66 unit/mL (porcine kidney), 37°C; UPLC-MS/MS; two separate runs
T1 sequence (P15145 1-963): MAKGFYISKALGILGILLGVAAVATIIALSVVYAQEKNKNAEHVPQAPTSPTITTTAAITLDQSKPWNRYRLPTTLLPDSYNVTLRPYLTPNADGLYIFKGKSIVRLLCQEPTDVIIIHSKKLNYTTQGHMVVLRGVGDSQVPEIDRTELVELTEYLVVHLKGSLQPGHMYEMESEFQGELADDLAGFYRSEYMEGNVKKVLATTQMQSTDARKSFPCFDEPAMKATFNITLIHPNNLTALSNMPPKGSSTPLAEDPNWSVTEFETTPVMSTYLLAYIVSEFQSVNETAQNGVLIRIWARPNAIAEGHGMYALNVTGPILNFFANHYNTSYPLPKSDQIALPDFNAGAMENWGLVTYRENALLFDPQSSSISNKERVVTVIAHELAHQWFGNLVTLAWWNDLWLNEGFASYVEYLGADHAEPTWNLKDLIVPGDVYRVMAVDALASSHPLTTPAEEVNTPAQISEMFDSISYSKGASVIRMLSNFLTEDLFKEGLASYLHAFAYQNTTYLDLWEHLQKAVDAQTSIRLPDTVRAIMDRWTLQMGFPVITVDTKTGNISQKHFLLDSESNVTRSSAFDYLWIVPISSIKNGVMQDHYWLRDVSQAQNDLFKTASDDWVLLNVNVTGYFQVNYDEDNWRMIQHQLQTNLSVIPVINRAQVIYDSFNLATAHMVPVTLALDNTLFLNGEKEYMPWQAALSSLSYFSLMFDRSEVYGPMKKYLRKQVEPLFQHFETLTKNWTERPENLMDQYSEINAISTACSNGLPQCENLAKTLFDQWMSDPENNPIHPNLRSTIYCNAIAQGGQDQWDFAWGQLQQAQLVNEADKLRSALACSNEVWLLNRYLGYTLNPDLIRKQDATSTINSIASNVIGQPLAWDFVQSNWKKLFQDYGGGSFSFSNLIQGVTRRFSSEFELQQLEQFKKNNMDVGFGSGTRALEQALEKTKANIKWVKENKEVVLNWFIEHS
Procedure: Aminopeptidase M (AM) degradation of LA in vitro was carried out as follows. LA solution (0.2 mg/mL) in simulated intestinal fluid (SIF) (without Pancreatin), USP XXII Formulation: Ricca Chemical) pH 6.5 containing MgCl2 (10 μM; catalyst support) was combined with AM (porcine kidney: Sigma) solution (final AM concentration is 0.66 unit/mL) in a vial. The combined mixture was incubated at 37°C in a shaker water bath, and samples for UPLC-MS analysis were collected at various timepoints quenched with 5% TFA solution (in 80% ACN: 20% DI water). Quenched samples were centrifuged at 13000xg for 5-minutes and the resulting supernatants were stored at -80°C for future MS analysis.
A simple and sensitive liquid chromatography/tandem mass spectrometric (LC-MS/MS) method was developed for the identification and quantification of LA and its digestive fragments in the enzyme digest solution and other matrices. Samples were prepared with simple ACN and TFA in water quenching of the enzyme activity and precipitation of protein(s). The supernatant was then diluted appropriately and analyzed directly using the UPLC-MS/MS method Chromatographic separations were achieved on a C18 reversed phase column using an ACN and TFA-water gradient. The detection was performed in MS/MS mode via positive electrospray ionization (ESI+) interface.
A Waters Quattro Xevo TOD mass spectrometer equipped with an electrospray ionization source and a Waters Acquity™ UPLC BEH system (Waters, Milford, MA, USA) with a binary solvent and a sample manager was used in this study. The LC column (Waters, C18, 50×2.1 mm, 1.7 μm) was operated at 35°C and the autosampler was operated at ambient temperature. A binary mobile phase (mobile phase A and mobile phase B) with a linear solvent gradient system was used for the chromatographic separations of larazotide and its digestive fragments. Mobile phase A, 0.02% TFA in water and mobile phase B, 0.02% TFA in ACN. The UPLC-MS/MS method was qualified for the determination and identification of larazotide and the larazotide digestive fragments in the enzyme digest solution.

[2] = Ringers solution bathing ischemia-injured porcine jejunal mucosa mounted in Ussing chambers (ex vivo recovery); details: Yorkshire crossbred pigs, up to 240 minutes
Aminopeptidase M (AM) = experiment: AM (porcine kidney: Sigma) in simulated intestinal fluid (SIF) (without Pancreatin) pH 6.5 containing MgCl2 (10 μM); details: 37°C, up to 180 minutes

| Compound | Fragment detected in Ringers solution during ex vivo recovery [1] | Degradation by aminopeptidase M and presence of fragments (aminopeptidase M) | further results |
| --- | --- | --- | --- |
| CC(C)C[C@@H](NC(=O)[C@H](NC(=O)CN)C(C)C)C(=O)N[C@@H](C(=O)N[C@H](CCC(N)=O)C(=O)N1CCC[C@@H]1C(=O)NCC(=O)O)C(C)C [A6F1] (H-G[dV][dL][dV][dQ][dP]G-OH) | predominant fragment formed |  |  |
| CC(C)C[C@@H](NC(=O)[C@H](N)C(C)C)C(=O)N[C@@H](C(=O)N[C@H](CCC(N)=O)C(=O)N1CCC[C@@H]1C(=O)NCC(=O)O)C(C)C [A6F2] (H-[dV][dL][dV][dQ][dP]G-OH) | formation |  |  |
| CC(C)C[C@@H](NC(=O)[C@H](N)C(C)C)C(=O)N[C@@H](C(=O)N[C@H](CCC(N)=O)C(=O)N1CCC[C@@H]1C(=O)O)C(C)C [A6F4] (H-[dV][dL][dV][dQ][dP]-OH) | formation |  |  |
| CC(C)C[C@@H](NC(=O)[C@H](NC(=O)CNC(=O)CN)C(C)C)C(=O)N[C@@H](C(=O)N[C@H](CCC(N)=O)C(=O)N1CCC[C@@H]1C(=O)NCC(=O)O)C(C)C [A6] (H-GG[dV][dL][dV][dQ][dP]G-OH) |  |  | Stability to brush-border enzyme degradation compared with LA ([1]; ex vivo stability data, Ussing chamber): significantly more stable; half-life [1]: 78 min |
| GGVLVQP [F3] | highest concentration out of all four fragments |  |  |
| GGVLVQPG [LA, Larazotide acetate] |  | fragmented throughout the entirety of the experiment | half-life [1]: 35 min |
| GVLVQPG [F1] | are formed | found in all samples collected during the run |  |
| H-GGVLVQPG-OH |  |  | cleaved bond [2]: Gly-Val; also recorded: Pro-Gly, major; cleaved bond (Aminopeptidase M (AM)): Gly-Val |
| VLVQP [F4] | detected |  |  |
| VLVQPG [F2] | are formed | not being detected after 90 minutes |  |
